Measured values published in US7122693B2, “Acetaldehyde acetal compounds, their synthesis, and uses thereof” (Shire BioChem Inc., priority 1988, dated 2006).
Where “and” joins values, the source holds several entries; their conditions need not be identical. Equal entries are not always repeated. Where two headings read alike, the source gives them in different places.

What was measured:
Format in all cases: cell-based
HIV-1 in MT-4 cells [1] = experiment: Viable cell counts, cytolytic effect of HIV-1 on MT-4 cells; details: for viability at 2 µg/mL: Human immunodeficiency virus 1, MT4, 144 h
Experimental: (§1) In vitro testing was conducted on several of the compounds of this invention to determine their inhibitory properties. The concentrations reported are μg/ml in the incubation media which affect the susceptibility of a continuous line of T-cells developed at the Lady Davis Institute for Medical Research (Montreal) by Dr. Mark A. Wainberg toward infection by HIV-1 following a protocol similar to that of H. Mitsuya and S. Broder, “Inhibition of the in vitro infectivity and cytopathic effect of human T-lymphotropic virus type III/lymphadenopathy-associated virus (HTLV-III/LAV) by 2′3′-dideoxynucleosides”, Proc. Natl. Acad. Sci. USA, 83, pp. 1911–15 (1986). Protection of the cell line from infection was monitored by staining with monoclonal antibodies against viral proteins in the standard manner (Table 1). In all experiments, comparisons were made with the drug AZT as the control. In order to confirm the results, the drug effects were monitored by measuring reverse transcriptase (RT) activity in the U-937 line of human monocytic cells as assayed in the usual manner with tritiated thymidine triphosphate (TTP) (Table 2). The drug effects on cell viability as measured by the well-know cytolytic effects of HIV-1 on the MT-4 cell line was evaluated in the accepted manner (Table 1).

HIV-1 in H-9 cells [2] = experiment: RT activity, HIV-1 production in H-9 cells (Table 3)
HIV-1 in MT-4 cells [3] = experiment: P-24 immunofluorescence in MT-4 cells (staining with monoclonal antibodies against viral proteins); details: 2 μg/ml
Experimental: as §1

HIV-1 in MT-4 cells [4] = experiment: Reverse transcriptase assay in MT-4 cells; details: 2 μg/ml
HIV-1 in H-9 cells [5] = experiment: Reverse transcriptase assay, HIV-1 production in H-9 cells (Table 2); details: 2 μg/ml
[6] = MT-4 cells, HIV-1, 6 days in culture, 2 μg/ml of compound, read-out: Cell Viability %
[7] = MT-4 cells, HIV-1, 6 days in culture, 2 μg/ml of compound
[8] = 7 days in culture (row between 14 and 21)

O=c1ccn(C2CSC(CO)O2)c(=O)[nH]1 (stereo not drawn) [cis-XVIII, Cis-2-hydroxymethyl-5-(uracil-N-1′-yl)-1,3-oxathiolane]
viability at 2 µg/mL (HIV-1 in MT-4 cells [1]; [6]): 14%

Nc1ccn(C2COC(CO)O2)c(=O)n1 (stereo not drawn) [trans-(XXXVI), trans-2-hydromethyl-4-(cytosin-1′-yl)-1,3-dioxolane]
RT activity (cpm) after 8 days (HIV-1 in H-9 cells [2]; inhibitor 10 μM): 4,608 cpm
RT activity (cpm) after 12 days (HIV-1 in H-9 cells [2]; inhibitor 10 μM): 83,462 cpm
RT activity (cpm) after 26 days (HIV-1 in H-9 cells [2]; inhibitor 10 μM): 312,478 cpm
RT activity (cpm) after 8 days (HIV-1 in H-9 cells [2]; inhibitor 50 μM): 1,319 cpm
RT activity (cpm) after 12 days (HIV-1 in H-9 cells [2]; inhibitor 50 μM): 758 cpm
RT activity (cpm) after 26 days (HIV-1 in H-9 cells [2]; inhibitor 50 μM): 1,732 cpm

Nc1ccn(C2CSC(CO)O2)c(=O)n1 (stereo not drawn) [trans-XI, trans-2-hydroxymethyl-5-(cytosin-1′-yl)-1,3-oxathiolane]
Cell Viability % (HIV-1 in MT-4 cells [1]; [7]): 24%

CN(C)C=Nc1ccn(C2CSC(CO)O2)c(=O)n1 (stereo not drawn) [cis-LIII, Cis-2-hydroxymethyl-5-(N-dimethylaminomethylenecytosin-1′-yl)-1,3-oxathiolane]
viability at 2 µg/mL (HIV-1 in MT-4 cells [1]; [6]): 18%

Cc1cn(C2CC(N=[N+]=[N-])C(CO)O2)c(=O)[nH]c1=O (centres unmarked) [AZT, 3′-azido-2′,3′-dideoxythymidine, reference compound]
viability at 2 µg/mL (HIV-1 in MT-4 cells [1]; read-out: Cell Viability %, MT-4 cells, HIV-1, 6 days in culture, 2 μg/ml of compound): 88.6%
% Immunofluorescent Cells (P-24) (HIV-1 in MT-4 cells [3]; 3 days in culture): 1.0%
% Immunofluorescent Cells (P-24) (HIV-1 in MT-4 cells [3]; 6 days in culture): 1.0%
RT Activity (CPM × 1000)/ml (HIV-1 in MT-4 cells [4]; 3 days in culture): 1.564 (CPM × 1000)/ml
RT Activity (CPM × 1000)/ml (HIV-1 in MT-4 cells [4]; 6 days in culture): 1.748 (CPM × 1000)/ml
RT Activity (CPM × 1000)/ml (HIV-1 in H-9 cells [5]; 5 days in culture): 3.346 (CPM × 1000)/ml
RT Activity (CPM × 1000)/ml (HIV-1 in H-9 cells [5]; [8]): 2.997 (CPM × 1000)/ml
RT Activity (CPM × 1000)/ml (HIV-1 in H-9 cells [5]; 8 days in culture): 3.414 (CPM × 1000)/ml
RT Activity (CPM × 1000)/ml (HIV-1 in H-9 cells [5]; 11 days in culture): 2.918 (CPM × 1000)/ml
RT Activity (CPM × 1000)/ml (HIV-1 in H-9 cells [5]; 14 days in culture): 8.320 (CPM × 1000)/ml
RT Activity (CPM × 1000)/ml (HIV-1 in H-9 cells [5]; 21 days in culture): 3.111 (CPM × 1000)/ml
RT Activity (CPM × 1000)/ml (HIV-1 in H-9 cells [5]; 25 days in culture): 15.88 (CPM × 1000)/ml
RT Activity (CPM × 1000)/ml (HIV-1 in H-9 cells [5]; 29 days in culture): 32.08 (CPM × 1000)/ml
RT Activity (CPM × 1000)/ml (HIV-1 in H-9 cells [5]; 33 days in culture): 612.2 (CPM × 1000)/ml
RT Activity (CPM × 1000)/ml (HIV-1 in H-9 cells [5]; 37 days in culture): 878.2 (CPM × 1000)/ml
RT Activity (CPM × 1000)/ml (HIV-1 in H-9 cells [5]; 41 days in culture): 994.0 (CPM × 1000)/ml
RT Activity (CPM × 1000)/ml (HIV-1 in H-9 cells [5]; 45 days in culture): 32.91 (CPM × 1000)/ml
RT activity (cpm) after 8 days (HIV-1 in H-9 cells [2]; inhibitor 20 μM): 633 cpm and 587 cpm
RT activity (cpm) after 26 days (HIV-1 in H-9 cells [2]; inhibitor 20 μM): 821 cpm and 679 cpm

Nc1ccn(C2CSC(CO)O2)c(=O)n1 (stereo not drawn) [cis-XI, Cis-2-hydroxymethyl-5-(cytosin-1′-yl)-1,3-oxathiolane]
Cell Viability % (HIV-1 in MT-4 cells [1]; [7]): 87.4%
% Immunofluorescent Cells (P-24) (HIV-1 in MT-4 cells [3]; 3 days in culture): 1.0%
% Immunofluorescent Cells (P-24) (HIV-1 in MT-4 cells [3]; 6 days in culture): 7.6%
RT Activity (CPM × 1000)/ml (HIV-1 in MT-4 cells [4]; 3 days in culture): 2.381 (CPM × 1000)/ml
RT Activity (CPM × 1000)/ml (HIV-1 in MT-4 cells [4]; 6 days in culture): 2.301 (CPM × 1000)/ml
RT Activity (CPM × 1000)/ml (HIV-1 in H-9 cells [5]; 5 days in culture): 3.077 (CPM × 1000)/ml
RT Activity (CPM × 1000)/ml (HIV-1 in H-9 cells [5]; [8]): 2.399 (CPM × 1000)/ml
RT Activity (CPM × 1000)/ml (HIV-1 in H-9 cells [5]; 8 days in culture): 5.853 (CPM × 1000)/ml
RT Activity (CPM × 1000)/ml (HIV-1 in H-9 cells [5]; 11 days in culture): 3.560 (CPM × 1000)/ml
RT Activity (CPM × 1000)/ml (HIV-1 in H-9 cells [5]; 14 days in culture): 2.872 (CPM × 1000)/ml
RT Activity (CPM × 1000)/ml (HIV-1 in H-9 cells [5]; 21 days in culture): 2.907 (CPM × 1000)/ml
RT Activity (CPM × 1000)/ml (HIV-1 in H-9 cells [5]; 25 days in culture): 4.020 (CPM × 1000)/ml
RT Activity (CPM × 1000)/ml (HIV-1 in H-9 cells [5]; 29 days in culture): 3.756 (CPM × 1000)/ml
RT Activity (CPM × 1000)/ml (HIV-1 in H-9 cells [5]; 33 days in culture): 3.803 (CPM × 1000)/ml
RT Activity (CPM × 1000)/ml (HIV-1 in H-9 cells [5]; 37 days in culture): 4.193 (CPM × 1000)/ml
RT Activity (CPM × 1000)/ml (HIV-1 in H-9 cells [5]; 41 days in culture): 4.515 (CPM × 1000)/ml
RT Activity (CPM × 1000)/ml (HIV-1 in H-9 cells [5]; 45 days in culture): 3.441 (CPM × 1000)/ml

Nc1ccn(C2C[S+]([O-])C(CO)O2)c(=O)n1 (single isomer, unassigned) [cis-XII (b), Cis-2-hydroxymethyl-5-(cytosin-1′-yl)-3-oxo-1,3-oxathiolane]
viability at 2 µg/mL (HIV-1 in MT-4 cells [1]; [6]): 14%

O=c1[nH]cnc2c1ncn2C1CSC(CO)O1 (stereo not drawn) [cis-LVI, Cis-2-hydroxymethyl-5-(6′-hydroxypurin-N-9′-yl)-1,3-oxathiolane]
viability at 2 µg/mL (HIV-1 in MT-4 cells [1]; [6]): 11%
